Source: EPA's ToxValDB 9.5
Several values for one entry are separate records, joined by “and”; a condition that tells them apart may be missing. Equal entries are not always repeated.

What was measured:
[1] = tested on: Rattus norvegicus; conditions: oral
[2] = tested on: Rattus norvegicus; conditions: oral; remark: listed apart in the source
[3] = tested on: Rattus norvegicus; conditions: oral; remark: listed apart in the source
[4] = tested on: Canidae; conditions: chronic, oral, diet, Dog Other
[5] = tested on: Rattus norvegicus; conditions: Hershberger; duration: 10 days; oral; gavage; Sprague-Dawley; inactive + Negative + Negative + neither + negative
[6] = tested on: Mus musculus; conditions: for LOAEL / NOAEL: oral; for LC50: acute, inhalation
[7] = tested on: Oryctolagus sp.; conditions: for LD50: acute
[8] = tested on: Rattus norvegicus; conditions: for LD50 / LC50: acute
[9] = duration: 6 months, M/F, increased serum alkaline phosphatase levels and increased liver-to-brain weight ratio
[10] = subchronic, M/F, reduced rbc and plasma cholinesterase activity
[11] = short-term, duration: 13 days, diet, B6C3F1
[12] = subchronic, duration: 13 weeks, diet, B6C3F1
[13] = subchronic, duration: 13 weeks, oral, diet, Fischer 344
[14] = short-term, duration: 28 days, gavage, M, Sprague-Dawley, Deaths + Clinical Observation: Locomotor activity decrease, SalivationDiarrhea or loose stool Staining around nose and mouth + Functional …
[15] = duration: 1 years, F, liver effects
[16] = duration: 1 years, M, liver effects
[17] = duration: 1 years, F, anemia (males)
[18] = duration: 1 years, M, anemia (males)
[19] = subchronic, M/F, reduced body weight
[20] = duration: 6 months, M/F, hematological effects
[21] = subchronic, M, liver/body weight ratio and hepatic microsomal enzyme induction

`NCl` [Chloramine] gave an NOAEL ([1]; chronic, M/F, no effects) of 9.5 mg/kg-day and an NOAEL ([2]; chronic, duration: 2 years, drinking water, Kidney: Weight changes + Liver: Weight changes + Whole body: Weight changes) of 9.5 mg/kg-day.
In the case of `S=C1NCCN1` [4,5-Dihydro-2-mercaptoimidazole], the NOEL ([3]; subchronic, duration: 13 weeks, diet, M/F, Fischer 344, Body Weight Changes: decrease + Food Consumption: decrease + Histopathology: Thyroid-Diffuse follicular cell hyperplasia Thyroid-Focal …) is reported as less than 5.76 mg/kg-day, the LOAEL ([1]; chronic, duration: 24 months, diet, M/F, increased incidence of thyroid hyperplasia) is reported as 0.25 mg/kg-day and the LOAEL ([2]; chronic, duration: 24 months, diet, Thyroid: Hyperplasia) is reported as 0.25 mg/kg-day.
`COCC(=O)N(c1c(C)cccc1C)C(C)C(=O)OC` (configuration not stated) [Metalaxyl] was tested, and the LEL [4, 9] was 25 mg/kg-day, the NOEL [4, 9] was 6.25 mg/kg-day and the NOEL [5] was 350 mg/kg-day.
Work on `CCOP(=S)(OCC)OP(=S)(OCC)OCC` [Sulfotepp] yielded an LEL [1, 10] of 1 mg/kg-day, an NOEL [1, 10] of 0.5 mg/kg-day and an NOEL ([2]; subchronic, duration: 3 months, diet, Blood: Decreased cholinesterase activity + Erythrocytes: Decreased cholinesterase activity) of 0.5 mg/kg-day.
Work on `Cc1cc(O)c(C(C)(C)C)cc1Sc1cc(C(C)(C)C)c(O)cc1C` [4,4'-Thiobis(6-tert-butyl-m-cresol)] yielded an LOAEL [6, 11] of 500 ppm, an NOAEL [6, 11] of 250 ppm and an LOAEL [6, 12] of 98.5 mg/kg-day. It also gave an NOAEL [6, 12] of 49.2 mg/kg-day, an LD50 ([7]; dermal, New Zealand) greater than 5010 mg/kg and an LD50 ([7]; dermal, occlusive, New Zealand) greater than 5010 mg/kg. The NOAEL ([7]; reproduction developmental, duration: 13 days, oral, gavage, F, New Zealand) was 0.2 mg/kg-day, the LD50 ([8]; oral, diet, Sprague-Dawley) was 4150 mg/kg and the LD50 ([8]; oral, gavage, Sprague-Dawley) was 4150 mg/kg. The LOAEL ([8]; short-term, duration: 13 days, oral, diet, Fischer 344) was 250 ppm, the NOAEL ([8]; short-term, duration: 15 days, oral, diet, Fischer 344) was 2500 ppm and the LOAEL [8, 13] was 96 mg/kg-day. It also gave an NOAEL [8, 13] of 48 mg/kg-day, an NOAEL [3, 14] of 60 mg/kg-day and an NOEL [3, 14] of less than 60 mg/kg-day. It also gave an NOEL ([3]; subchronic, duration: 13 weeks, diet, F, Fischer 344, Clinical Observation: Diarrhea + Body Weight Changes: decrease + Food Consumption: decrease + Hematology: Nucleated erythrocyte increase, …) of less than 15 mg/kg-day and an NOEL ([3]; subchronic, duration: 13 weeks, diet, M/F, Fischer 344, Clinical Observation: Diarrhea + Body Weight Changes: decrease + Food Consumption: decrease + Hematology: Nucleated erythrocyte increase, …) of less than 24 mg/kg-day.
`COC(=O)c1ccccc1CS(=O)(=O)NC(=O)Nc1nc(OC)cc(OC)n1` [Bensulfuron-methyl] gave an LEL [4, 15] of 223 mg/kg-day, an NOEL [4, 15] of 19.9 mg/kg-day and an LEL [4, 16] of 237 mg/kg-day. The NOEL [4, 16] was 21.4 mg/kg-day.
`CC(C)(C)C(=O)O` [2,2-Dimethylpropanoic acid] was tested, and the LC50 ([6]; Swiss) was less than 4 µg/mL, the LD50 ([7]; dermal) was 3160 mg/kg and the LD50 ([7]; dermal, semiocclusive) was 3160 mg/kg. For the same compound, the NOAEL ([7]; repeat dose other, dermal, M) was 300 mg/kg-day, the NOAEL ([7]; repeat dose other, dermal, semiocclusive) was 300 mg/kg-day and the LC50 ([8]; inhalation, Wistar) was less than 4 µg/mL. It also gave an NOAEL ([8]; short-term, duration: 28 days, oral, gavage, Fischer 344) of 300 mg/kg-day and an NOAEL ([3]; short-term, duration: 28 days, gavage, M/F, Fischer 344, Clinical Observation: Head shaking Sneezing Dark nasal discharge + Blood Chemistry: ALP increase, T-Cho increase, T-Bil increase + Absolute …) of 300 mg/kg-day.
In the case of `CCC/C(=N\OCC)C1=C(O)CC(CC(C)SCC)CC1=O` (configuration not stated) [Sethoxydim], the LEL [4, 17] is reported as 19.9 mg/kg-day, the NOEL [4, 17] is reported as 9.41 mg/kg-day and the LEL [4, 18] is reported as 17.5 mg/kg-day. It also gave an NOEL [4, 18] of 8.86 mg/kg-day.
Compound `CCN(CC)C(=S)[S-].[Na+]` [Sodium diethyldithiocarbamate] has an LOAEL ([1]; chronic, M/F, Reduced body weight and cataracts in females) of 62.5 mg/kg-day, an LOAEL [1, 19] of 100 mg/kg-day and an NOEL [1, 19] of 30 mg/kg-day. The NOEL ([2]; subchronic, duration: 90 days, Eye: Cataracts + Whole body: Decreased weight) was 30 mg/kg-day.
`[Al+3].[P-3]` [Aluminum phosphide] gave an NOAEL ([1]; chronic, M/F, body weight and clinical parameters) of 0.043 mg/kg-day and an NOAEL ([2]; chronic, duration: 2 years, diet, Unspecified: Altered clinical parameters + Whole body: Altered weight) of 0.43 mg/kg-day.
With `Nc1nc(N)nc(NC2CC2)n1` [Cyromazine] the LEL [4, 20] was 7.5 mg/kg-day and the NOEL [4, 20] was 0.75 mg/kg-day.
`[O]=[Sb](=[O])[O][Sb](=[O])=[O]` [Antimony pentoxide] was tested, and the LOAEL ([2]; chronic, drinking water, blood: Altered chemistries + Whole body: Increased mortality) was 0.46 mg/kg-day.
In the case of `N#CC#N` [Cyanogen], the NOAEL ([2]; chronic, duration: 2 years, diet, Nerve: Myelin degeneration + Thyroid: Effects + Whole body: Decreased weight) is reported as 21.6 mg/kg-day.
`Brc1ccc(Br)cc1` [1,4-Dibromobenzene] showed an LOAEL [1, 21] of 20 mg/kg-day, an NOAEL [1, 21] of 10 mg/kg-day and an NOAEL ([2]; subchronic, duration: 45 days, gavage, Liver: Altered enzyme activities + Liver: Increased relative weight) of 10 mg/kg-day.
With `CCN(CC)C(=S)SSC(=S)N(CC)CC` [Tetraethylthiuram disulfide] the NOAEL ([6]; reproduction developmental, duration: 6 days, gavage, CD1, generation: F1) was greater than 4900 mg/kg-day, the LD50 ([7]; dermal, occlusive, New Zealand) was greater than 2000 mg/kg and the LD50 ([8]; oral, gavage, Sprague-Dawley) was 4570 mg/kg and > 5200 mg/kg and 7070 mg/kg. For the same compound, the NOAEL ([8]; reproduction developmental, duration: 19 days, oral, gavage, F, Sprague-Dawley) was greater than 250 mg/kg-day.
With `O=C(Cl)CCl` [Chloroacetyl chloride] the LC50 [6] was 11100 mg/m3, the LD50 ([7]; dermal, semiocclusive, New Zealand) was ≥ 316 mg/kg and ≤ 501 mg/kg and the LC50 ([8]; inhalation, Fischer 344) was 3050 mg/m3. The LD50 ([8]; oral) was ≥ 1260 mg/kg and ≤ 2500 mg/kg, the LD50 ([8]; oral, Sprague-Dawley) was 207 mg/kg and the LOAEL ([8]; short-term, duration: 4 weeks, inhalation, Fischer 344) was 2.31 mg/m3.
